Reference: patent US6958221B2, “Cell flow apparatus and method for real-time measurements of patient cellular responses” (Caliper Life Sciences, Inc., priority 1996, dated 2005)
Where a SMILES comes first, the peptide text is derived from it. [ ]: non-standard residue; d: D form.

Molecular target: T1, endothelin subtype A receptor ETAR (Homo sapiens, UniProt P25101)
T1 construct: TE-671 cells, human medulloblastoma (ATCC CRL 8805), naturally express endothelin subtype A receptor ETAR; host or cells: TE-671 human medulloblastoma cells
T1 sequence (P25101 21-427): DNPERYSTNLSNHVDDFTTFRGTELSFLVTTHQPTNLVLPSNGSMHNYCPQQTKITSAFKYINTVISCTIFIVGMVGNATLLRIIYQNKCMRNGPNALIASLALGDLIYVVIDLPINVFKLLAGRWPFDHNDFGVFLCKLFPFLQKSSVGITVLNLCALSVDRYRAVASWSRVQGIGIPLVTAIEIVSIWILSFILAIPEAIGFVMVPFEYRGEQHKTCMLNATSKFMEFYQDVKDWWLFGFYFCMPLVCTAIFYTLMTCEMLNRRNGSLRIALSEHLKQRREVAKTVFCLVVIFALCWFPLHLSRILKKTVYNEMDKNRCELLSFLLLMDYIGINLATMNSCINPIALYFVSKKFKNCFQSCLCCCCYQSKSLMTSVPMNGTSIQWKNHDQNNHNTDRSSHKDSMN
Assay: ET-1 induced intracellular calcium mobilization in TE-671 cells (flow apparatus, FURA-2)
Format: cell-based
Method: TE-671 cells, human medulloblastoma (ATCC CRL 8805), naturally express endothelin subtype A receptor ETAR.
The apparatus was a negative pressure computer controlled unit as described above. This run was performed in the presence of several concentrations of ETAR specific competitive antagonist BQ-123 (shown in nanomolar concentration).
TE-671 cells were prepared for use in the cell physiometer of the present invention by growing them in a T75 flask until confluence. The growth media was decanted and the cells were washed twice with Dulbecco's phosphate buffered saline (DPBS) and supplemented with a fresh DPBS containing 2 μM FURA-2AM, which easily penetrates into cell cytoplasm and is hydrolyzed there with nonspecific esterases to form FURA 2, a dye which is sensitive to the ionized form of calcium. After 30 min incubation, the cells were supplemented with the equal volume of fresh DPBS and incubated for further 30 min. The cells, now loaded with the dye, were detached from the flask bottom with 0.05% Trypsin-EDTA solution. The cells were then washed twice with DPBS, containing 0.1% soybean trypsin inhibitor, and resuspended in calcium-free, magnesium-free and phenol red-free Dulbecco's modified Eagle's medium (DMEM).
This gives three fold final dilution for each component of the flow passing through mixing zone 343 and eventually, detector 355. The proportioning valve 327, was programmed for the first, second and third runs to give final BQ-123 concentration of zero, 10 nM and 40 nM, respectively.
The flow rate and the length of the reaction developing line were chosen so that the time interval from the point of mixing the cells with the compound to the point of signal detection in the flow-through optical cell was 40 seconds.

CC(C)C[C@@H]1NC(=O)[C@@H](C(C)C)NC(=O)[C@@H]2CCCN2C(=O)[C@@H](CC(=O)O)NC(=O)[C@@H](Cc2c[nH]c3ccccc23)NC1=O [BQ-123] (cyclo(L[dW][dD]P[dV]))
Kb: 11 nM | type of inhibition (shift of ET-1 activation curves) (TE-671 cells, activation curves parallel shifted to the right in the presence of BQ-123): competitive type of inhibition | Ki (TE-671 cells, corresponds to the pA2 value, read-out: inhibition constant, K1): 11 nM
